The numbers were not newly measured in PMC11881559 (Antimicrobial Agents and Chemotherapy, 2025), which cites them from elsewhere.

In data set [1] the test system is Delta variant of the novel coronavirus. The settings on record: K18-hACE2 mice infected with Delta variant, 300 mg/kg/day; cited from earlier work.
Data set [2] relates to SARS-CoV-2 variants, including the wild-type, Alpha, Beta, Delta, and Omicron strains. The settings on record: cited from earlier work.

`O=C(NC1CCCC1)C(=O)[C@H](C[C@@H]1CCNC1=O)NC(=O)[C@@H]1[C@H]2CCC[C@H]2CN1C(=O)[C@@H](NC(=O)C(F)(F)F)C1CCCCC1` [RAY1216, leritrelvir]: the “lung viral titers and virus-induced pathology” value in data set [1] is “significantly decreased lung viral titers and reduced virus-induced pathology”. Also, the “inhibition of SARS-CoV-2 variants in vitro” value in data set [2] is reported as “clearly inhibited”.
